Consider nine compounds from PubChem BioAssay (NCI).

Each structure is given as a SMILES string. Values joined by “and” are separate entries in the source; they are usually repeats but may differ in a detail not shown here. Equal entries are not always repeated.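 In this assay, cells in 96-well plates receive the compound at five concentrations for 48 hours. Endpoints are linearly interpolated between the surrounding concentrations. GI50 = concentration required for 50% inhibition of growth. At the TGI there is no net growth.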 Bounds are passed on as bounds.

Holding throughout (assay): NCI tumour cell line growth inhibition, 48 h
Test [1] has as its system OVCAR-4 ovarian.
Test [2] relates to A549 NSCLC.
For test [3], the system named is T-47D breast.
The subject of test [4] is UACC-257 melanoma.
The test system of test [5] is MOLT-4 leukemia.
The subject of test [6] is HS 578T breast.
For test [7], the system named is HCC-2998 colon.
Test [8] has as its system LOX IMVI melanoma.
Test [9] concerns K-562 leukemia.
Test [10] concerns MDA-MB-231 breast.

In the case of `C/C(=C(\c1ccc(OCCN2CCCCCC2)cc1)c1ccc(OC(=O)Cc2ccccc2)cc1)c1ccc(Cl)cc1`, the GI50 in [1] is 2.82 µM; in test [2], 2.7 µM; in [3], 1.95 µM; in test [4] it was 3.25 µM; in test [5], 3.09 µM; in test [6], 2.86 µM. Moreover, the GI50 in test [7] is 2.72 µM; in test [8], 2.51 µM; in [9], 0.77 µM; in [10], 3.04 µM. The TGI in test [1] amounted to 7.05 µM; in test [2], 5.41 µM; in [3], 6.42 µM; in test [4], 6.22 µM; in test [5] it was 13.4 µM; in test [6], 6.52 µM. Moreover, the TGI in [7] was determined as 5.57 µM; in test [8], 4.77 µM; in test [9], 12.1 µM; in test [10] it was 5.69 µM.

For the compound `CN(C)CCOC(c1ccccc1)c1ccccc1`, the TGI in [1] was above 100 µM; in test [2], 51.7 µM and > 100 µM; in [3], 57.2 µM and > 100 µM; in test [4], 19.8 µM and > 100 µM; in test [5] it was above 100 µM; in test [6] it was 51.3 µM and > 100 µM. The TGI in [7] is above 100 µM; in [8], above 100 µM; in [9], above 100 µM; in [10], 45.2 µM and > 100 µM. Besides, the GI50 in test [2] was 35.9 µM; in test [3] it was 31.4 µM; in test [4], 14.2 µM; in test [6], 32.2 µM; in [10], 15.6 µM.

In the case of `S=C(N/N=C(/c1ccccc1)c1ccccn1)N1CCCCCC1`, the TGI is 2.04 µM in [1]; 1.7 µM and 2.25 µM in test [2]; 0.709 µM in test [4]; 0.00191 µM in [5]; 7.58 µM and 7.59 µM in test [6]; 3.13 µM and 1.98 µM in test [7]. Moreover, the TGI in test [8] is 1.79 µM and 1.27 µM; in [9], 0.0117 µM; in test [10], 1.87 µM and 1.83 µM. Moreover, the GI50 in test [2] was 0.0318 µM; in test [3], below 0.001 µM; in test [5], below 0.001 µM; in [6], 1.54 µM; in [7], 1.17 µM; in [8] it was 0.00892 µM and 0.0583 µM. Besides, the GI50 in [9] and in test [10] was below 0.001 µM in each case.

As for `CN(C)CCCNC(=O)c1cncnc1Nc1ccc(OCc2cccc(F)c2)c(Cl)c1`, the GI50 in test [1] is 1.83 µM; in test [2], 1.71 µM; in test [3], 1.82 µM; in test [4], 1.89 µM; in [5] it was 1.67 µM; in test [6], 1.56 µM. The GI50 in test [7] was 1.55 µM; in [8], 1.44 µM; in test [9], 1.74 µM; in [10] it was 1.69 µM. Besides, the TGI amounted to 4.36 µM in test [1]; 3.37 µM in test [2]; 4.28 µM in [3]; 3.83 µM in [4]; 3.4 µM in test [5]; 3.3 µM in [6]. Also, the TGI in test [7] stood at 3.01 µM; in [8] it was 2.81 µM; in [9], 3.73 µM; in [10], 3.14 µM.

On to `O=C1OC(c2ccccc2)(c2cc(Br)c(O)c(Br)c2)c2ccccc21` (configuration not stated), for which the GI50 was 22.7 µM in [1]; 31.3 µM in [2]; 26.8 µM in test [3]; 35.4 µM in test [4]; 30.4 µM in test [5]; 18.5 µM in [6]. In addition, the GI50 in [7] is 19.9 µM; in test [8] it was 16.3 µM; in test [9], 32.5 µM; in test [10] it was 25.9 µM. Besides, the TGI in test [1] is 78.9 µM; in [2], above 100 µM; in test [3], above 100 µM; in [4], above 100 µM; in [5] it was above 100 µM; in [6], 57.3 µM. The TGI in test [7] is 37.8 µM; in [8], 33 µM; in [9] it was above 100 µM; in [10], 86.1 µM.

Take `CCCCCCc1nc2nc(Cl)c(Cl)nc2[nH]1`: the GI50 in test [1] was 6.33 µM; in [2] it was 4.34 µM; in test [3] it was 2.68 µM; in [4], 3.02 µM; in [5], 5.21 µM; in test [6] it was above 100 µM. Moreover, the GI50 in test [7] is above 100 µM; in test [8], 6.24 µM; in [9], 5.29 µM; in [10] it was 35.9 µM. Moreover, the TGI in test [1], in test [2], in test [3], in test [4], in test [5] and in test [6] was above 100 µM throughout. For the same compound, the TGI in test [7], in [8], in test [9] and in [10] was above 100 µM throughout.

In the case of `CCCCCCCCCCCCOC1C(C(CC(=O)N2CCN(c3cccc(C(F)(F)F)c3)CC2)NS(=O)(=O)c2cc(Cl)cc(Cl)c2)OC2OC(C)(C)OC21` (configuration not stated), the GI50 in test [1], in [2], in [3], in test [4], in test [5] and in [6] was above 100 µM throughout. Moreover, the GI50 in [7], in test [8], in test [9] and in test [10] was above 100 µM in each case. Further, the TGI in test [1], in test [2], in test [3], in test [4], in test [5] and in [6] was above 100 µM each time. Moreover, the TGI in test [7], in test [8], in [9] and in test [10] was above 100 µM each time.

Regarding `C=C(CN1CCN(c2cccc(C(F)(F)F)n2)CC1)c1ccc(C(=S)Nc2ccccc2N)cc1`, the GI50 in test [1] is 3.01 µM; in test [2], 3.32 µM; in test [3], 2.26 µM; in test [4], 3.33 µM; in [5], 2.1 µM; in test [6], 3.52 µM. Further, the GI50 was 5.74 µM in [7], 3.72 µM in [8], 1.57 µM in [9] and 2.52 µM in test [10]. Moreover, the TGI in test [1] was above 100 µM; in [2] it was above 100 µM; in test [3], 8.54 µM; in [4], 18.8 µM; in [5], 6.4 µM; in test [6], above 100 µM. The TGI is above 100 µM in [7], 17.6 µM in test [8], 4.48 µM in test [9] and 8.9 µM in test [10].

Turning to `CNC(=O)Oc1cc(C)c(/C=C/c2cncc(C(=O)NC)c2)c(C)c1`, the GI50 in test [1] is above 25 µM; in test [2], above 25 µM; in [3], above 25 µM; in [4], 24.7 µM; in test [5] it was above 25 µM; in test [6], 12.9 µM. Besides, the GI50 was above 25 µM in [7], 15.9 µM in [8], 15.3 µM in test [9] and above 25 µM in test [10]. For the same compound, the TGI in [1], in test [2], in [3], in test [4], in test [5] and in test [6] was above 25 µM each time. The TGI in test [7], in [8], in test [9] and in test [10] was above 25 µM in each case.
